Results taken from patent US20230119013A1, “N-CYANOPYRROLIDINES WITH ACTIVITY AS USP30 INHIBITORS” (MISSION THERAPEUTICS LIMITED, priority 2020, published 2023).

How the values were obtained:
[1] = molecular target: Cathepsin L (Homo sapiens, UniProt P07711); assay: Cathepsin IC50, Cathepsin L; assay type: biochemical
[2] = molecular target: T1, USP30 (Homo sapiens, UniProt Q70CQ3); assay: USP30 endogenous cellular target engagement western blot assay (Cell TE WB); assay type: cell-based; settings: Hela cells stably overexpressing YFP-Parkin, 1 hour
T1 construct: USP30 endogenous cellular target engagement western blot (WB) assay; endogenous in cells; host or cells: HeLa cells stably overexpressing YFP-Parkin
T1 sequence (Q70CQ3 whole entry): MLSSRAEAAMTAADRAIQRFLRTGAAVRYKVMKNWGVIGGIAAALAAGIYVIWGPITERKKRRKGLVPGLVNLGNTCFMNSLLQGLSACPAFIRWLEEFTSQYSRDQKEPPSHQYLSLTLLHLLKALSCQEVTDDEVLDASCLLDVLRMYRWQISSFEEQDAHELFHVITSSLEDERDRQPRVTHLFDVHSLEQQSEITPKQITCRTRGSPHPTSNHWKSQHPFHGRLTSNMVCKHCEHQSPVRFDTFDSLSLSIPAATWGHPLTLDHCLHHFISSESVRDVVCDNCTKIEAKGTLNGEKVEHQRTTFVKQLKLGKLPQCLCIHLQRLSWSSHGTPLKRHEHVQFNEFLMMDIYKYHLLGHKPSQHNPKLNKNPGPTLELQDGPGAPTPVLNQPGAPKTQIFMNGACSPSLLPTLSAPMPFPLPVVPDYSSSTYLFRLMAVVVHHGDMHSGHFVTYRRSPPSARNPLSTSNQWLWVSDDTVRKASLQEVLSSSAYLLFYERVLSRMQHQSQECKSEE
Protocol: Hela cells stably overexpressing YFP-Parkin were seeded into 6 well dishes. Once adhered, cells were treated with appropriate concentrations of test compounds or vehicle control for 1 hour at 37° C., 5% CO2. Whole cell lysates were prepared by scraping the cells into cold PBS, centrifuging and lysing in lysis buffer (50 mM Tris-base, pH 7.5, 50 mM NaCl, 1% NP-40/Igepal CA-630, 2 mM MgCl2, 10% Glycerol, 5 mM beta-mercaptoethanol, cOmplete mini tablets EDTA free (Roche), PhosStop tablets (Roche)) for 10 mins. The equivalent of 20 μg of protein from the cleared cell lysate was incubated with a final conc of 2.5 μM HA-Ahx-Ahx-Ub-VME probe at room temperature. The reaction was stopped by addition of 5×SDS sample loading buffer and proteins separated by SDS PAGE and western blotting. USP30 was detected using an anti-USP30 Sheep S746D antibody (MRC PPU Reagents and Services) and a rabbit anti sheep secondary IgG (H+L) horseradish peroxidase conjugated (Thermo #31480) and visualised using ECL reagent (GE #RPN2109) on a GE LAS4000 imager. Target engagement was measured by quantitation of the bands corresponding to USP30 and USP30 bound to the Ub-VME probe and expression of this proportion compared to vehicle treated control.
MDR1-MDCK (Madin-Darby Canine Kidney cell monolayer) (in vitro) flux assay. Cell TE WB: USP30 endogenous cellular target engagement western blot (WB) assay. […]

[3] = molecular target: T2, USP30 (Mus musculus, UniProt Q3UN04); assay: USP30 brain tissue target engagement assay (TE ex vivo); assay type: in vivo; settings: 2 mg/kg iv, n = 2 avg
T2 construct: in either brain or kidney tissue samples from compound-dosed animals; from tissue; b325 calls 'TE ex vivo' a kidney tissue assay
T2 sequence (Q3UN04 whole entry): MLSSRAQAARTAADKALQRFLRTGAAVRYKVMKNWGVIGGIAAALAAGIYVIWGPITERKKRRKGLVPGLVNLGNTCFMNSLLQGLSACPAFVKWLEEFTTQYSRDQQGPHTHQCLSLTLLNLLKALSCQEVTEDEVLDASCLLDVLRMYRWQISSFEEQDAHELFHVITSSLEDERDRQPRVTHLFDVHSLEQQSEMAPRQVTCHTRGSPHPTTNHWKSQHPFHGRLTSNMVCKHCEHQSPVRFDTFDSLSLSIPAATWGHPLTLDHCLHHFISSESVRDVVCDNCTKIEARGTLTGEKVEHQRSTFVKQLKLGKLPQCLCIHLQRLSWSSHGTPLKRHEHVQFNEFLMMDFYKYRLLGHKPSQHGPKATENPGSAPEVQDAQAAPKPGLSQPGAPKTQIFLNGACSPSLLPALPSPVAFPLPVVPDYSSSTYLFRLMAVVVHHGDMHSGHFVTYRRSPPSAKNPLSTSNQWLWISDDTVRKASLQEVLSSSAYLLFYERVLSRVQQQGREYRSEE
Protocol: 50 to 100 mg of tissue was homogenised in 3× volume of lysis buffer (50 mM Tris-base, pH 7.5, 50 mM NaCl, 1% NP-40/Igepal CA-630, 2 mM MgCl2, 10% Glycerol, 5 mM beta-mercaptoethanol, cOmplete mini tablets EDTA free (Roche), PhosStop tablets (Roche)) using the Retch Mixer Mill (MM400). The lysates were cleared and protein quantified using the Bradford Protein assay (Pierce). Lysate containing 60 μg protein was incubated with a final conc of 24 μM of HA-Ahx-Ahx-Ub-VME probe for 60 mins at room temperature. The reaction was stopped by addition of 5×SDS sample loading buffer and proteins separated by SDS-PAGE and western blotting. USP30 was detected using an anti-USP30 Sheep S746D antibody (MRC PPU Reagents and Services) and a rabbit anti sheep secondary IgG (H+L) horseradish peroxidase conjugated (Thermo #31480) and visualised using ECL reagent (GE #RPN2109) on a GE LAS4000 imager. Target engagement was measured by quantitation of the bands corresponding to USP30 and USP30 bound to the Ub-VME probe and expression of this proportion compared to vehicle treated control.
MDR1-MDCK (Madin-Darby Canine Kidney cell monolayer) (in vitro) flux assay. Cell TE WB: USP30 endogenous cellular target engagement western blot (WB) assay. Assays the activity of compounds against USP30 in cells using an irreversible activity probe to monitor USP30 activity. […]

Cathepsin L, sequence (P07711 114-333, species assumed): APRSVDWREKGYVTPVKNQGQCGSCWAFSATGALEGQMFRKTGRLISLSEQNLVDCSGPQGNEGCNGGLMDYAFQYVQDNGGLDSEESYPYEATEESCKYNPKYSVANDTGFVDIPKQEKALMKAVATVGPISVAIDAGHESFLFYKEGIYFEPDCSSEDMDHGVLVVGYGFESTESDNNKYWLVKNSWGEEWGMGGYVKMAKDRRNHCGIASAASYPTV

SMILES | IC50 [1] [µM] | EC50 [2] [µM] | TE ex vivo Mouse brain (%) at 15 min ([3]; 15 min) [%] | TE ex vivo Mouse brain (%) at 60 min ([3]; 60 min) [%]
COC[C@@H]1C[C@@H](NC(=O)c2ncc(-c3cccc(OC(F)(F)F)c3)o2)CN1C#N [Example 1, N-((3R,5S)-1-Cyano-5-(methoxymethyl)pyrrolidin-3-yl)-5-(3-(trifluoromethoxy)phenyl)oxazole-2-carboxamide] | 17.7 | – | – | –
C[C@@H]1C[C@@H](NC(=O)c2ncc(-c3cccc(OC(F)(F)F)c3)o2)CN1C#N [Example 2, N-((3R,5R)-1-Cyano-5-methylpyrrolidin-3-yl)-5-(3-(trifluoromethoxy)phenyl)oxazole-2-carboxamide] | – | 0.007 | 68 | 25
